{
  "source": "patent US20140155580A1",
  "about": "“TRANSGENIC AVES PRODUCING HUMAN POLYCLONAL ANTIBODIES” (Synageva BioPharma Corp., priority 2003, published 2014)",
  "tested_on": "chicken embryonic stem cells",
  "assay": "Titration kill curve: cES cells in culture exposed to puromycin or neomycin",
  "assay_type": "cell-based",
  "design": "key to Morphology of cES cells: ES: ES cells are present.; diff: ES cells are differentiated.; gone: no morphologically recognizable cells are present",
  "experimental": "In a preferred embodiment, the concentration of puromycin required for selecting transfected cells is calculated as a titration kill curve. Titration kill curves for chicken embryonic stem cells are established by exposing cells in culture to puromycin concentrations varying from 0.0 to 1.0 μg/ml for 10 days (Table 7) and neomycin concentrations varying from 0.0 to 200 μg/ml (Table 8). The medium is changed every 2 days and fresh puromycin or neomycin is added. […] Puromycin concentrations of 0.3-1.0 μg/ml are used for selection of the transfected cultures. Neomycin concentrations over 40 μg/ml eliminated all cES cells within 7 days (Table 8).",
  "data": [
    {"substance": "neomycin", "values": [
      {"measurement": "Morphology of cES cells", "setting": "neomycin 10 μg/ml, day 1 under selection", "result": "ES"},
      {"measurement": "Morphology of cES cells", "setting": "neomycin 10 μg/ml, day 2 under selection", "result": "ES"},
      {"measurement": "Morphology of cES cells", "setting": "neomycin 10 μg/ml, day 3 under selection", "result": "ES"},
      {"measurement": "Morphology of cES cells", "setting": "neomycin 10 μg/ml, day 4 under selection", "result": "ES"},
      {"measurement": "Morphology of cES cells", "setting": "neomycin 10 μg/ml, day 5 under selection", "result": "ES"},
      {"measurement": "Morphology of cES cells", "setting": "neomycin 10 μg/ml, day 6 under selection", "result": "ES"},
      {"measurement": "Morphology of cES cells", "setting": "neomycin 10 μg/ml, day 7 under selection", "result": "ES"},
      {"measurement": "Morphology of cES cells", "setting": "neomycin 10 μg/ml, day 8 under selection", "result": "ES"},
      {"measurement": "Morphology of cES cells", "setting": "neomycin 10 μg/ml, day 9 under selection", "result": "ES"},
      {"measurement": "Morphology of cES cells", "setting": "neomycin 10 μg/ml, day 10 under selection", "result": "ES"},
      {"measurement": "Morphology of cES cells", "setting": "neomycin 20 μg/ml, day 1 under selection", "result": "ES"},
      {"measurement": "Morphology of cES cells", "setting": "neomycin 20 μg/ml, day 2 under selection", "result": "ES"},
      {"measurement": "Morphology of cES cells", "setting": "neomycin 20 μg/ml, day 3 under selection", "result": "ES"},
      {"measurement": "Morphology of cES cells", "setting": "neomycin 20 μg/ml, day 4 under selection", "result": "ES"},
      {"measurement": "Morphology of cES cells", "setting": "neomycin 20 μg/ml, day 5 under selection", "result": "ES"},
      {"measurement": "Morphology of cES cells", "setting": "neomycin 20 μg/ml, day 6 under selection", "result": "ES"},
      {"measurement": "Morphology of cES cells", "setting": "neomycin 20 μg/ml, day 7 under selection", "result": "ES"},
      {"measurement": "Morphology of cES cells", "setting": "neomycin 20 μg/ml, day 8 under selection", "result": "ES"},
      {"measurement": "Morphology of cES cells", "setting": "neomycin 20 μg/ml, day 9 under selection", "result": "ES"},
      {"measurement": "Morphology of cES cells", "setting": "neomycin 20 μg/ml, day 10 under selection", "result": "ES"},
      {"measurement": "Morphology of cES cells", "setting": "neomycin 30 μg/ml, day 1 under selection", "result": "ES"},
      {"measurement": "Morphology of cES cells", "setting": "neomycin 30 μg/ml, day 2 under selection", "result": "ES"},
      {"measurement": "Morphology of cES cells", "setting": "neomycin 30 μg/ml, day 3 under selection", "result": "ES"},
      {"measurement": "Morphology of cES cells", "setting": "neomycin 30 μg/ml, day 4 under selection", "result": "ES"},
      {"measurement": "Morphology of cES cells", "setting": "neomycin 30 μg/ml, day 5 under selection", "result": "ES"},
      {"measurement": "Morphology of cES cells", "setting": "neomycin 30 μg/ml, day 6 under selection", "result": "ES"},
      {"measurement": "Morphology of cES cells", "setting": "neomycin 30 μg/ml, day 9 under selection", "result": "Diff"},
      {"measurement": "Morphology of cES cells", "setting": "neomycin 40 μg/ml, day 1 under selection", "result": "ES"},
      {"measurement": "Morphology of cES cells", "setting": "neomycin 40 μg/ml, day 2 under selection", "result": "ES"},
      {"measurement": "Morphology of cES cells", "setting": "neomycin 40 μg/ml, day 3 under selection", "result": "ES"},
      {"measurement": "Morphology of cES cells", "setting": "neomycin 40 μg/ml, day 4 under selection", "result": "ES"},
      {"measurement": "Morphology of cES cells", "setting": "neomycin 40 μg/ml, day 7 under selection", "result": "dead"},
      {"measurement": "Morphology of cES cells", "setting": "neomycin 40 μg/ml, day 8 under selection", "result": "gone"},
      {"measurement": "Morphology of cES cells", "setting": "neomycin 40 μg/ml, day 9 under selection", "result": "gone"},
      {"measurement": "Morphology of cES cells", "setting": "neomycin 40 μg/ml, day 10 under selection", "result": "gone"},
      {"measurement": "Morphology of cES cells", "setting": "neomycin 50 μg/ml, day 1 under selection", "result": "ES"},
      {"measurement": "Morphology of cES cells", "setting": "neomycin 50 μg/ml, day 2 under selection", "result": "ES"},
      {"measurement": "Morphology of cES cells", "setting": "neomycin 50 μg/ml, day 3 under selection", "result": "ES"},
      {"measurement": "Morphology of cES cells", "setting": "neomycin 50 μg/ml, day 8 under selection", "result": "gone"},
      {"measurement": "Morphology of cES cells", "setting": "neomycin 50 μg/ml, day 9 under selection", "result": "gone"},
      {"measurement": "Morphology of cES cells", "setting": "neomycin 50 μg/ml, day 10 under selection", "result": "gone"},
      {"measurement": "Morphology of cES cells", "setting": "neomycin 60 μg/ml, day 1 under selection", "result": "ES"},
      {"measurement": "Morphology of cES cells", "setting": "neomycin 60 μg/ml, day 2 under selection", "result": "ES"},
      {"measurement": "Morphology of cES cells", "setting": "neomycin 60 μg/ml, day 3 under selection", "result": "ES"},
      {"measurement": "Morphology of cES cells", "setting": "neomycin 60 μg/ml, day 4 under selection", "result": "gone"},
      {"measurement": "Morphology of cES cells", "setting": "neomycin 60 μg/ml, day 5 under selection", "result": "gone"},
      {"measurement": "Morphology of cES cells", "setting": "neomycin 60 μg/ml, day 6 under selection", "result": "gone"},
      {"measurement": "Morphology of cES cells", "setting": "neomycin 60 μg/ml, day 7 under selection", "result": "gone"},
      {"measurement": "Morphology of cES cells", "setting": "neomycin 60 μg/ml, day 8 under selection", "result": "gone"},
      {"measurement": "Morphology of cES cells", "setting": "neomycin 60 μg/ml, day 9 under selection", "result": "gone"},
      {"measurement": "Morphology of cES cells", "setting": "neomycin 60 μg/ml, day 10 under selection", "result": "gone"},
      {"measurement": "Morphology of cES cells", "setting": "neomycin 100 μg/ml, day 2 under selection", "result": "Diff"},
      {"measurement": "Morphology of cES cells", "setting": "neomycin 100 μg/ml, day 3 under selection", "result": "dead"},
      {"measurement": "Morphology of cES cells", "setting": "neomycin 100 μg/ml, day 4 under selection", "result": "gone"},
      {"measurement": "Morphology of cES cells", "setting": "neomycin 100 μg/ml, day 5 under selection", "result": "gone"},
      {"measurement": "Morphology of cES cells", "setting": "neomycin 100 μg/ml, day 6 under selection", "result": "gone"},
      {"measurement": "Morphology of cES cells", "setting": "neomycin 100 μg/ml, day 7 under selection", "result": "gone"},
      {"measurement": "Morphology of cES cells", "setting": "neomycin 100 μg/ml, day 8 under selection", "result": "gone"},
      {"measurement": "Morphology of cES cells", "setting": "neomycin 100 μg/ml, day 9 under selection", "result": "gone"},
      {"measurement": "Morphology of cES cells", "setting": "neomycin 100 μg/ml, day 10 under selection", "result": "gone"},
      {"measurement": "Morphology of cES cells", "setting": "neomycin 150 μg/ml, day 1 under selection", "result": "dead"},
      {"measurement": "Morphology of cES cells", "setting": "neomycin 150 μg/ml, day 2 under selection", "result": "dead"},
      {"measurement": "Morphology of cES cells", "setting": "neomycin 150 μg/ml, day 3 under selection", "result": "gone"},
      {"measurement": "Morphology of cES cells", "setting": "neomycin 150 μg/ml, day 4 under selection", "result": "gone"},
      {"measurement": "Morphology of cES cells", "setting": "neomycin 150 μg/ml, day 5 under selection", "result": "gone"},
      {"measurement": "Morphology of cES cells", "setting": "neomycin 150 μg/ml, day 6 under selection", "result": "gone"},
      {"measurement": "Morphology of cES cells", "setting": "neomycin 150 μg/ml, day 7 under selection", "result": "gone"},
      {"measurement": "Morphology of cES cells", "setting": "neomycin 150 μg/ml, day 8 under selection", "result": "gone"},
      {"measurement": "Morphology of cES cells", "setting": "neomycin 150 μg/ml, day 9 under selection", "result": "gone"},
      {"measurement": "Morphology of cES cells", "setting": "neomycin 150 μg/ml, day 10 under selection", "result": "gone"},
      {"measurement": "Morphology of cES cells", "setting": "neomycin 200 μg/ml, day 1 under selection", "result": "dead"},
      {"measurement": "Morphology of cES cells", "setting": "neomycin 200 μg/ml, day 2 under selection", "result": "gone"},
      {"measurement": "Morphology of cES cells", "setting": "neomycin 200 μg/ml, day 3 under selection", "result": "gone"},
      {"measurement": "Morphology of cES cells", "setting": "neomycin 200 μg/ml, day 4 under selection", "result": "gone"},
      {"measurement": "Morphology of cES cells", "setting": "neomycin 200 μg/ml, day 5 under selection", "result": "gone"},
      {"measurement": "Morphology of cES cells", "setting": "neomycin 200 μg/ml, day 6 under selection", "result": "gone"},
      {"measurement": "Morphology of cES cells", "setting": "neomycin 200 μg/ml, day 7 under selection", "result": "gone"},
      {"measurement": "Morphology of cES cells", "setting": "neomycin 200 μg/ml, day 8 under selection", "result": "gone"},
      {"measurement": "Morphology of cES cells", "setting": "neomycin 200 μg/ml, day 9 under selection", "result": "gone"},
      {"measurement": "Morphology of cES cells", "setting": "neomycin 200 μg/ml, day 10 under selection", "result": "gone"},
      {"measurement": "Time in which all cES cells were eliminated", "setting": "neomycin concentrations over 40 μg/ml", "result": "≤ 7", "unit": "days"}
    ]}
  ]
}
